Assay results published in patent US12655116B2, “Substituted isophthalic acid diamides” (Bayer Aktiengesellschaft, priority 2020, dated 2026).

Tests used:
ALOMY = experiment: Post-emergence herbicidal action against ALOMY; assay type: in vivo, Alopecurus myosuroides; settings: Alopecurus myosuroides, 504 h, visual assessment about 3 weeks after treatment vs untreated controls
In short: (§1)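 Weeds in sandy loam soil received a post-emergence spray at the one-leaf stage. Compounds were applied as WP or EC in water, 600 to 800 l/ha, with 0.2% wetting agent. Activity in % was judged visually after roughly 3 weeks against untreated plants.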

ABUTH [1] = experiment: Pre-emergence herbicidal action against ABUTH; assay type: in vivo, Abutilon theophrasti; settings: Abutilon theophrasti, 504 h
In short: (§2)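 Visual rating at 3 weeks vs untreated pots; 0–100% scale, 100% = plants died. Treatment: aqueous WP/EC spray onto covering soil, 600–800 l/ha, 0.2% wetter, seeds in sandy loam.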

POLCO [2] = experiment: Post-emergence herbicidal action against POLCO; assay type: in vivo, Polygonum convolvulus; settings: Fallopia convolvulus, 504 h, dosage 80 g/ha
In short: as §1

ABUTH [3] = experiment: Post-emergence herbicidal action against ABUTH; assay type: in vivo, Abutilon theophrasti; settings: Abutilon theophrasti, 504 h, visual assessment about 3 weeks after treatment vs untreated controls
In short: as §1

LOLRI [4] = experiment: Pre-emergence herbicidal action against LOLRI; assay type: in vivo, Lolium rigidum; settings: Lolium rigidum, 504 h, 320 g/ha
In short: as §2

VERPE [5] = experiment: Post-emergence herbicidal action against VERPE; assay type: in vivo, Veronica persica; settings: Veronica persica, 504 h
In short: as §1

ECHCG [6] = experiment: Pre-emergence herbicidal action against ECHCG; assay type: in vivo, Echinochloa crus-galli; settings: Echinochloa crus-galli, 504 h
In short: as §2

HORMU [7] = experiment: Post-emergence herbicidal action against HORMU; assay type: in vivo, Hordeum murinum; settings: Hordeum murinum, 504 h
In short: as §1

LOLRI [8] = experiment: Post-emergence herbicidal action against LOLRI; assay type: in vivo, Lolium rigidum; settings: Lolium rigidum, 504 h
In short: as §1

AVEFA [9] = experiment: Post-emergence herbicidal action against AVEFA; assay type: in vivo, Avena fatua; settings: Avena fatua, 504 h, visual assessment about 3 weeks after treatment, 100% = plants have died, 0% = like control plants
In short: as §1

STEME [10] = experiment: Post-emergence herbicidal action against STEME; assay type: in vivo, Stellaria media; settings: Stellaria media, 504 h
In short: as §1

POLCO [11] = experiment: Pre-emergence herbicidal action against POLCO; assay type: in vivo, Polygonum convolvulus; settings: Fallopia convolvulus, 504 h
In short: as §2

MATIN [12] = experiment: Post-emergence herbicidal action against MATIN; assay type: in vivo, Matricaria inodora; settings: Tripleurospermum inodorum, 504 h
In short: as §1

AVEFA [13] = experiment: Pre-emergence herbicidal action against AVEFA; assay type: in vivo, Avena fatua; settings: Avena fatua, 504 h, pre-emergence
In short: as §2

SETVI = experiment: Post-emergence herbicidal action against SETVI; assay type: in vivo, Setaria viridis; settings: Setaria viridis, 504 h
In short: as §1

AMARE = experiment: Post-emergence herbicidal action against AMARE; assay type: in vivo, Amaranthus retroflexus; settings: Amaranthus retroflexus, 504 h, visual assessment about 3 weeks after treatment, 100% = plants have died, 0% = like control plants
In short: as §1

HORMU [14] = experiment: Pre-emergence herbicidal action against HORMU; assay type: in vivo, Hordeum murinum; settings: Hordeum murinum, 504 h, pre-emergence
In short: as §2

STEME [15] = experiment: Pre-emergence herbicidal action against STEME; assay type: in vivo, Stellaria media; settings: Stellaria media, 504 h
In short: as §2

VIOTR = experiment: Post-emergence herbicidal action against VIOTR; assay type: in vivo, Viola tricolor; settings: Viola tricolor, 504 h
In short: as §1

MATIN [16] = experiment: Pre-emergence herbicidal action against MATIN; assay type: in vivo, Matricaria inodora; settings: Tripleurospermum inodorum, 504 h
In short: as §2

PHBPU = experiment: Post-emergence herbicidal action against PHBPU; assay type: in vivo, Pharbitis purpurea; settings: Ipomoea purpurea, 504 h
In short: as §1

ECHCG [17] = experiment: Post-emergence herbicidal action against ECHCG; assay type: in vivo, Echinochloa crus-galli; settings: Echinochloa crus-galli, 504 h
In short: as §1

VERPE [18] = experiment: Pre-emergence herbicidal action against VERPE; assay type: in vivo, Veronica persica; settings: Veronica persica, 504 h, dosage 320 g/ha
In short: as §2

In the case of CCn1nnnc1NC(=O)c1ccc(C(F)(F)F)c(C(=O)NC)c1Cl [Example 2-129], the pest or weed control at 5 g/ha (ALOMY; dosage 5 g/ha) is reported as 100%, the pest or weed control at 20 g/ha (ALOMY; dosage 20 g/ha) is reported as 100% and the pest or weed control at 80 g/ha (ALOMY; dosage 80 g/ha) is reported as 100%. The pest or weed control at 80 g/ha (ABUTH [1]; 80 g/ha, scored visually after 3 weeks vs untreated controls (100% = plants have died, 0% = like control plants)) was 100%, the pest or weed control at 320 g/ha (ABUTH [1]; Dosage: 320 g/ha, scored visually after 3 weeks, 100% = plants have died, 0% = like control plants) was 100% and the pest or weed control at 20 g/ha (ABUTH [1]; dosage 20 g/ha, scored visually after 3 weeks vs untreated controls, 100% = plants have died, 0% = like control plants, read-out: Pre-emergence action against ABUTH (herbicidal activity in percent)) was 100%. For the same molecule, the pest or weed control at 80 g/ha (POLCO [2]) was 100%, the pest or weed control at 5 g/ha (ABUTH [3]; dosage 5 g/ha) was 100% and the pest or weed control at 20 g/ha (ABUTH [3]; dosage 20 g/ha) was 100%. For the same molecule, the pest or weed control at 80 g/ha (ABUTH [3]; dosage 80 g/ha) was 100%, the pest or weed control at 320 g/ha (LOLRI [4]) was 100% and the pest or weed control at 20 g/ha (VERPE [5]; 20 g/ha) was 80%. The pest or weed control at 80 g/ha (VERPE [5]; 80 g/ha) was 90%, the pest or weed control at 80 g/ha (ECHCG [6]; 80 g/ha) was 100% and the pest or weed control at 320 g/ha (ECHCG [6]; 320 g/ha) was 100%. It also gave a pest or weed control at 5 g/ha (HORMU [7]; dosage 5 g/ha) of 80%, a pest or weed control at 20 g/ha (HORMU [7]; dosage 20 g/ha) of 90% and a pest or weed control at 80 g/ha (HORMU [7]; dosage 80 g/ha) of 100%. It also gave a pest or weed control at 20 g/ha (LOLRI [8]; dosage 20 g/ha) of 100%, a pest or weed control at 80 g/ha (LOLRI [8]; dosage 80 g/ha) of 100% and a pest or weed control at 5 g/ha (AVEFA [9]; 5 g/ha) of 100%. It also gave a pest or weed control at 20 g/ha (AVEFA [9]; 20 g/ha) of 100%, a pest or weed control at 80 g/ha (AVEFA [9]; 80 g/ha) of 100% and a pest or weed control at 20 g/ha (STEME [10]; 20 g/ha) of 100%. It also gave a pest or weed control at 80 g/ha (STEME [10]; 80 g/ha) of 100%, a pest or weed control at 5 g/ha (STEME [10]; dosage 5 g/ha) of 100% and a pest or weed control at 20 g/ha (POLCO [11]; dosage 20 g/ha) of 100%. For the same molecule, the pest or weed control at 80 g/ha (POLCO [11]; dosage 80 g/ha) was 100%, the pest or weed control at 320 g/ha (POLCO [11]; dosage 320 g/ha) was 100% and the pest or weed control at 5 g/ha (MATIN [12]; dosage 5 g/ha) was 80%. For the same molecule, the pest or weed control at 20 g/ha (MATIN [12]; dosage 20 g/ha) was 100%, the pest or weed control at 80 g/ha (MATIN [12]; dosage 80 g/ha) was 100% and the pest or weed control at 80 g/ha (AVEFA [13]; 80 g/ha) was 100%. For the same molecule, the pest or weed control at 20 g/ha (AVEFA [13]; 20 g/ha, scored visually after 3 weeks, 100% = plants have died, 0% = like control plants) was 100%, the pest or weed control at 320 g/ha (AVEFA [13]; 320 g/ha, scored visually after 3 weeks, 100% = plants have died, 0% = like control plants) was 100% and the pest or weed control at 5 g/ha (SETVI; dosage 5 g/ha) was 100%. The pest or weed control at 20 g/ha (SETVI; dosage 20 g/ha) was 100%, the pest or weed control at 80 g/ha (SETVI; dosage 80 g/ha) was 100% and the pest or weed control at 20 g/ha (AMARE; 20 g/ha) was 100%. It also gave a pest or weed control at 80 g/ha (AMARE; 80 g/ha) of 100%, a pest or weed control at 80 g/ha (HORMU [14]; 80 g/ha) of 90% and a pest or weed control at 320 g/ha (HORMU [14]; 320 g/ha) of 100%. The pest or weed control at 20 g/ha (STEME [15]; dosage 20 g/ha) was 80%, the pest or weed control at 80 g/ha (STEME [15]; dosage 80 g/ha) was 80% and the pest or weed control at 320 g/ha (STEME [15]; dosage 320 g/ha) was 100%. For the same molecule, the pest or weed control at 5 g/ha (VIOTR; 5 g/ha) was 80%, the pest or weed control at 20 g/ha (VIOTR; 20 g/ha) was 100% and the pest or weed control at 80 g/ha (VIOTR; 80 g/ha) was 100%. For the same molecule, the pest or weed control at 20 g/ha (MATIN [16]; dosage 20 g/ha) was 100%, the pest or weed control at 80 g/ha (MATIN [16]; dosage 80 g/ha) was 100% and the pest or weed control at 320 g/ha (MATIN [16]; dosage 320 g/ha) was 100%. It also gave a pest or weed control at 20 g/ha (PHBPU; dosage 20 g/ha) of 100%, a pest or weed control at 80 g/ha (PHBPU; dosage 80 g/ha) of 100% and a pest or weed control at 20 g/ha (ECHCG [17]; dosage 20 g/ha) of 100%. For the same molecule, the pest or weed control at 80 g/ha (ECHCG [17]; dosage 80 g/ha) was 100% and the pest or weed control at 320 g/ha (VERPE [18]) was 100%.
